Data on seven compounds can be found in patent US8871753B2, “Macrocyclic compounds and their use as kinase inhibitors” (Incyte Corporation, priority 2008, dated 2014).

Structures are written as SMILES. Structures can show the parent of a compound that is named as a salt. Where two headings read alike, the source gives them in different places. Some results are limits rather than exact numbers.

Holding throughout (assay type): biochemical
Test [1] deals with T1, human JAK3 (a.a. 781-1124) (Homo sapiens, UniProt P52333).
T1 construct: JAK3 (a.a. 781-1124); His tag (N); made in house; host or cells: insect cells (baculovirus)
Description: In vitro JAK kinase assay (HTRF, phosphorylation of a biotinylated peptide), JAK3. Summed up:
(§1)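 Phosphorylation of a biotinylated peptide by the JAK kinase domain, detected by HTRF with Eu-Py20 and SA-APC. ATP was 90 μM for JAK1, 30 μM for JAK2 and 3 μM for JAK3. Reactions ran 1 h at room temperature and were stopped with EDTA, followed by 40 min antibody binding.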

The target in test [2] is T2, human JAK2 (a.a. 828-1132) (Homo sapiens, UniProt O60674).
T2 construct: JAK2 (a.a. 828-1132); His tag (N); made in house; host or cells: insect cells (baculovirus)
Description: In vitro JAK kinase assay (HTRF, phosphorylation of a biotinylated peptide), JAK2. A digest of the protocol:
as §1

In test [3] the target is T3, Recombinant Human Anaplastic Lymphoma Kinase (Homo sapiens, UniProt Q9UM73).
T3 construct: purchased Invitrogen, Carlsbad, Calif
Description: ALK HTRF kinase assay. A digest of the protocol:
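Readout was HTRF between a Eu-W1024 anti-phosphotyrosine antibody and streptavidin-APC bound to biotinylated peptide phosphorylated by recombinant human ALK. IC50 values came from a four-parameter logistic fit.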

Test [4] addresses T4, human JAK1 (a.a. 837-1142) (Homo sapiens, UniProt P23458).
T4 construct: human JAK1 (a.a. 837-1142); His tag (N); made in house; host or cells: insect cells (baculovirus)
The experiment in a line: In vitro JAK kinase assay (HTRF, phosphorylation of a biotinylated peptide), JAK1. The conditions noted are these: read-out: JAK1 IC50. Summed up: as §1

Another test concerns the target TYK2 (Homo sapiens, UniProt P29597). The experiment in a line: TYK2 kinase inhibition (Table A1).
Setting [5] is: method AA1 (3 μM ATP) or AA2 (1000 μM ATP), not stated per value.
The mark [6] stands for this setting: method AA1 (30 μM ATP) or AA2 (1000 μM ATP), not stated per value.
The mark [7] stands for this setting: compound at 500 nM or 1 mM, 90 μM ATP.
[8] abbreviates: method AA1 (90 μM ATP) or AA2 (1000 μM ATP), not stated per value.
Where [9] appears, read: compound at a concentration of 500 nM or 1 mM (not specified), cells shown as percentage.

T3 sequence (Q9UM73 19-1620): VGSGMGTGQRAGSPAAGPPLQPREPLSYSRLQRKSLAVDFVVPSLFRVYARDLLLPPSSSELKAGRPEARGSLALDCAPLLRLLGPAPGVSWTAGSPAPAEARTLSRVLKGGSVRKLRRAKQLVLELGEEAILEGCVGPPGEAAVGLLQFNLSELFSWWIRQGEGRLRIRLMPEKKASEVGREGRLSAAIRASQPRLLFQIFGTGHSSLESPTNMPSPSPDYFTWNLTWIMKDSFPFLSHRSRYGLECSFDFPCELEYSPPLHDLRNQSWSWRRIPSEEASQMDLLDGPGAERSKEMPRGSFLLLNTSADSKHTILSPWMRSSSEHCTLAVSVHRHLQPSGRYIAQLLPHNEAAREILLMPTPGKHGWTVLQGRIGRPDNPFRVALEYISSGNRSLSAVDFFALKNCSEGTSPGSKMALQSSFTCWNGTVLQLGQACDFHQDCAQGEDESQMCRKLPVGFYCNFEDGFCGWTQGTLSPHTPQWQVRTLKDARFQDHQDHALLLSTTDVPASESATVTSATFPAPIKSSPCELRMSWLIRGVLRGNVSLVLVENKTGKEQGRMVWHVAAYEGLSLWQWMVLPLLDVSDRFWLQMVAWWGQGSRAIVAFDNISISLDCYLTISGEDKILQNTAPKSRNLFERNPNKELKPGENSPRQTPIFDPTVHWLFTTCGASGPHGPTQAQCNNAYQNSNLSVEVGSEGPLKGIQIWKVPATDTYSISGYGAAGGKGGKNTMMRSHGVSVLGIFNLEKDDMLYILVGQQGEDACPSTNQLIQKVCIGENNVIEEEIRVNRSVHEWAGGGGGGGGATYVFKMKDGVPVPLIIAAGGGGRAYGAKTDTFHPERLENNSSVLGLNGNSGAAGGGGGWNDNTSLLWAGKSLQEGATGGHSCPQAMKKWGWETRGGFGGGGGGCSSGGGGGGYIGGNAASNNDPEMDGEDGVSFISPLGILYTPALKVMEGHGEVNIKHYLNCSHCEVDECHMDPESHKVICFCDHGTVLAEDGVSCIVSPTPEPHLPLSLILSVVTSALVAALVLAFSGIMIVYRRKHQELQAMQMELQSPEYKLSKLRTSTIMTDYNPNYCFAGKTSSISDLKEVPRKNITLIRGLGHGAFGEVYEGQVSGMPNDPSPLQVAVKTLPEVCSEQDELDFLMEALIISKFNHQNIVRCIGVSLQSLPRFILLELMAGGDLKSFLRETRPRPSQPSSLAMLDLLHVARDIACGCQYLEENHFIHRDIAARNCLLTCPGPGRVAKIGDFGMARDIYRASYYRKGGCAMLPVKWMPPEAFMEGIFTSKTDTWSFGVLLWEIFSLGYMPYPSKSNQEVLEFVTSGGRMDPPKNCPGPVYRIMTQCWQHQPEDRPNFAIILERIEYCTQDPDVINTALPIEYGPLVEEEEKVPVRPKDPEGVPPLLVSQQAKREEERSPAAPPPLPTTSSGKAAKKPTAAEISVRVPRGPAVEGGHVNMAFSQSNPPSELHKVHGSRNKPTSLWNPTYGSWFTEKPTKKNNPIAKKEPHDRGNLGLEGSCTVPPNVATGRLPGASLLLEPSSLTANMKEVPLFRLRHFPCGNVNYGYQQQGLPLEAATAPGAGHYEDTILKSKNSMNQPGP
T2 sequence (O60674 828-1132): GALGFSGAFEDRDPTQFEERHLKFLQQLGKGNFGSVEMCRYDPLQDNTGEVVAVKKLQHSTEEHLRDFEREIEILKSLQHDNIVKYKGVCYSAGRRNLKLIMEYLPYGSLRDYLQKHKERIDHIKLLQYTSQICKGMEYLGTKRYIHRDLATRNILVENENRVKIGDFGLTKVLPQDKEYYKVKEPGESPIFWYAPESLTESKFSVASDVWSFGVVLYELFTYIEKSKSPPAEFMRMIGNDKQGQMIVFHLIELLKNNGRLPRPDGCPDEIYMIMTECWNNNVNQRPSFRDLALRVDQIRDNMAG
T4 sequence (P23458 849-1154): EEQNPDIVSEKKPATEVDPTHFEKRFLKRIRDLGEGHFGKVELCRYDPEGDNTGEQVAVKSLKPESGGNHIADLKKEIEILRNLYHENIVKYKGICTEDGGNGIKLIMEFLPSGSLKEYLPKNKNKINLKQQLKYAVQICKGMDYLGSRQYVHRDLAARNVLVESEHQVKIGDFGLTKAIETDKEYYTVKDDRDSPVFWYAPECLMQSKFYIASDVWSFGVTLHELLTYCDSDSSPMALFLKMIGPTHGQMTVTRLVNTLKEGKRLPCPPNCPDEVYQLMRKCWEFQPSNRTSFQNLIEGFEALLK
T1 sequence (P52333 781-1124): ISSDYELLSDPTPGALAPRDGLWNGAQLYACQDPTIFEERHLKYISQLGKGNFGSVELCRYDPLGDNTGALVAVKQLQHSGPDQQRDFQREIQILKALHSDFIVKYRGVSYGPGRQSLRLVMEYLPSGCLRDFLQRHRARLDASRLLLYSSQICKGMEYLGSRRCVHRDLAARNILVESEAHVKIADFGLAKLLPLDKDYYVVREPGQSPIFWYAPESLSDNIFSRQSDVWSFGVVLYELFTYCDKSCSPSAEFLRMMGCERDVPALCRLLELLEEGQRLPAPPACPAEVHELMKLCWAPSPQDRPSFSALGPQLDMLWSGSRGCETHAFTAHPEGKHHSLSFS
TYK2, sequence (P29597 whole entry): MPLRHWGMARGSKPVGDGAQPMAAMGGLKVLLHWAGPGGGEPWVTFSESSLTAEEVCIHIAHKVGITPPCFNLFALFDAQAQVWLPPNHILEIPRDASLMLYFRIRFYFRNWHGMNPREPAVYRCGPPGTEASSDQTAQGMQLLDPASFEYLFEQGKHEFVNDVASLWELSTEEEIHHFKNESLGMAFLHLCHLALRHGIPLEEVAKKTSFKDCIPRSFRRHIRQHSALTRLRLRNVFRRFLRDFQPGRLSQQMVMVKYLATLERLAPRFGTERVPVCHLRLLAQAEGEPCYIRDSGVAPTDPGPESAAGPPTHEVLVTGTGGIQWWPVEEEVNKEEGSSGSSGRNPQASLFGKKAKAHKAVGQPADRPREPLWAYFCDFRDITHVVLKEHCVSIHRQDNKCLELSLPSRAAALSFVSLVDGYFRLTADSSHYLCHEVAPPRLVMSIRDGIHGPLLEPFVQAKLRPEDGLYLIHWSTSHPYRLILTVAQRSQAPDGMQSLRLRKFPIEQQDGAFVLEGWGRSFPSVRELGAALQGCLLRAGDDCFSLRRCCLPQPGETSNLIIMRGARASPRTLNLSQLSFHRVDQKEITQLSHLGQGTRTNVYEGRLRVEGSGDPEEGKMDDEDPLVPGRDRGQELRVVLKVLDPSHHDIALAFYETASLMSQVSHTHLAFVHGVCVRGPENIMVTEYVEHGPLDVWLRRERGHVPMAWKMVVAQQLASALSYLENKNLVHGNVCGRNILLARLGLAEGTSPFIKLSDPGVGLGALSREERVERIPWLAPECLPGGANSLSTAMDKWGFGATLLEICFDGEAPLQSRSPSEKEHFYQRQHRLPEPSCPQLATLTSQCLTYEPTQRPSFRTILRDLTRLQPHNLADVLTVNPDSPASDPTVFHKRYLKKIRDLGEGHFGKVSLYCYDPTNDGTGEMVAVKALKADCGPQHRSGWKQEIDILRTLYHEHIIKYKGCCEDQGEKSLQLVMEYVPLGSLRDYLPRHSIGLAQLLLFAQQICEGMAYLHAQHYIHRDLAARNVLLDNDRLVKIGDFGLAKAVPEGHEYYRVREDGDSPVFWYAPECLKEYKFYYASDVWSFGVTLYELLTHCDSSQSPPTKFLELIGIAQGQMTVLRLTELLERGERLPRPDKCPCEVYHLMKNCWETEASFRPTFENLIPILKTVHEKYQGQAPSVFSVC

For `O=C(CN1CCNCC1)Nc1ccc2cc1CCc1cccc(c1)Nc1ncc(Cl)c(n1)N2` [Example A114, tris(trifluoroacetate)], the IC50 in test [1] (setting [5]) is 59 nM; in test [2] (setting [6]) it was 13 nM; in test [4] (setting [8]) it was 25 nM; at TYK2 it was 33 nM. Further, the “ALK % of inhibition at a concentration of 500 nM or 1 mM” value (shortened to “ALK % of inhibition”) in test [3] (setting [7]) came out at 19%.
Turning to `O=C(CC1CCN(C(=O)c2ccc(F)cc2F)CC1)Nc1ccc2cc1CCc1cncc(c1)Nc1ncc(Cl)c(n1)N2` [Example A194, N-[6-Chloro-2,4,8,18,22-pentaazatetracyclo[14.3.1.1(3,7).1(9,13)]docosa-1(20),3(22),4,6,9(21),10,12,16,18-nonaen-12-yl]-2-[1-(2,4-difluorobenzoyl)piperidin-4-yl]acetamide bis(trifluoroacetate)], the IC50 in test [1] (setting [5]) is above 200 nM; in test [2] (setting [6]), 150 nM; in test [4] (setting [8]), 7.3 nM; on TYK2, above 200 nM. Besides, the “ALK % of inhibition” value in test [3] (setting [7]) amounted to 31%.
Consider `O=C1NCc2cccc(c2)Nc2ncc(Cl)c(n2)Nc2cccc1c2` [Example C4, 6-Chloro-2,4,8,15,23-pentaazatetracyclo[15.3.1.1(3,7).1(9,13)]tricosa-1(21),3(23),4,6,9(22),10,12,17,19-nonaen-14-one], for which the IC50 in test [1] was 317 nM; in test [2] it was 350 nM; in test [3] it was above 1000 nM; in test [4], 361 nM; against TYK2, above 1000 nM.
In the case of `CC(C)(C)OC(=O)N[C@@H]1CCN(C(=O)Nc2ccc3cc2CCc2cccc(c2)Nc2ncc(Cl)c(n2)N3)C1` [Example B236, tert-Butyl [(3R)-1-({[6-chloro-2,4,8,22-tetraazatetracyclo[14.3.1.1(3,7).1(9,13)]docosa-1(20),3(22),4,6,9(21),10,12,16,18-nonaen-12-yl]amino}carbonyl)pyrrolidin-3-yl]carbamate], the IC50 in test [1] (Table B1) amounted to 9.7 nM; in test [2] (Table B1) it was 1.7 nM; in test [4] (Table B1) it was 1.7 nM; against TYK2 (Table B1), 6.1 nM. The “ALK % of inhibition” value in test [3] (setting [9]) is 29%.
For `Clc1cnc2nc1Nc1cccc(c1)OCCc1cc(cc(-c3ccncc3)c1)N2` [Example D25, 6-Chloro-19-pyridin-4-yl-14-oxa-2,4,8,23-tetraazatetracyclo[15.3.1.1(3,7).1(9,13)]tricosa-1(21),3(23),4,6,9(22),10,12,17,19-nonaene bis(trifluoroacetate)], the IC50 in test [1] (Table D1) is 8.8 nM; in test [2] (Table D1), 0.3 nM; in test [3] (Table D1, 90 μM ATP), 110 nM; in test [4] (Table D1), 1.1 nM; against TYK2 (Table D1) it was 2.1 nM.
With `CN1CC[C@H](NC(=O)Nc2ccc3cc2CCc2cccc(c2)Nc2ncc(Cl)c(n2)N3)C1` [Example B261, N-[6-Chloro-2,4,8,22-tetraazatetracyclo[14.3.1.1(3,7).1(9,13)]docosa-1(20),3(22),4,6,9(21),10,12,16,18-nonaen-12-yl]-N′-[(3S)-1-methylpyrrolidin-3-yl]urea bis(trifluoroacetate)], the IC50 in test [1] (Table B1) was 81 nM; in test [2] (Table B1) it was 29 nM; in test [4] (Table B1), 9.5 nM; on TYK2 (Table B1), 81 nM. For the same compound, the “ALK % of inhibition” value in test [3] (setting [9]) amounted to 24%.
Take `O=C(Nc1ccc2cc1CCc1cccc(c1)Nc1ncc(Cl)c(n1)N2)Nc1cccc2c1CCCC2` [Example B109, N-[6-Chloro-2,4,8,22-tetraazatetracyclo[14.3.1.1(3,7).1(9,13)]docosa-1(20),3(22),4,6,9(21),10,12,16,18-nonaen-12-yl]-N′-(5,6,7,8-tetrahydronaphthalen-1-yl)urea trifluoroacetate]: the IC50 in test [1] (Table B1) was determined as 261 nM; in test [2] (Table B1), 56 nM; in test [4] (Table B1), 9.6 nM; against TYK2 (Table B1), 72 nM. Moreover, the “ALK % of inhibition” value in test [3] (setting [9]) was 0%.
